One test concerns CaCo-2 cells. The experiment in a line: BrdU incorporation with or without Hrs-EGFP transfection. As to conditions: serum starved 0.1% FCS, mean ± SD of three independent experiments. The class given is cell-based. The procedure: We used the lipofectamine kit (Invitrogen, San Giuliano Milanese, Italy) according to the manufacturer's instructions to transfect all plasmids (Rab5-EGFP, Rab7-EGFP, Hrs-EGFP and Hrs-Ha). Briefly, CaCo-2 cells seeded on coverslips for 48 h were transfected with the plasmids for 16 h. The next day, transfected cells were pulsed and chased as described below or stained for Bromodeoxyuridine (BrdU) with a monoclonal antibody (Sigma-Aldrich, Milan, Italy) and total nuclei were identified by Hoechst staining. BrdU incorporation was performed as described elsewhere, briefly, CaCo-2 cells seeded on coverslips were transfected with Hrs-EGFP and serum starved in DMEM 0.1% foetal calf serum, antibiotics and glutamine for 30–48 h followed by 24 h treatment with gliadin peptides and/or growth factors. BrdU ([…], Boehringer) was added for one hour before fixing the samples. The cells fixed with paraformaldehyde and permeabilised with triton, were stained for BrdU as described and observed at the miscroscope (Axiophot microscope, Carl Zeiss MicroImaging, Inc.). Greater than 100 HRS-EGFP positive cells in several fields were evaluated for BrdU incorporation in each sample. The number of HRS-EGFP/BrdU positive cells was expressed as a proportion of the total Hoechst positive nuclei.

The target in the next test is T1, Hrs (Homo sapiens, UniProt O14964).
T1 construct: to quantify the amount of endogenous Hrs present in each compartment; endogenous in cells; host or cells: CaCo-2
Nature of the test: Subcellular fractionation and immunoblotting of endogenous Hrs. The class given is cell-based. As to conditions: CaCo-2 cells, western blot, three independent experiments. As to the method:
Near-confluent Caco2 cells in a 90-mm dish were incubated with EGF and P31-43 at various times, after homogenization (10 mM Tris-HCl [pH 7.4], 1 mM EDTA, and the mixture of phosphatase and protease inhibitors) the nuclear fraction was eliminated by centrifugation. The soluble cytosolic and the membrane fraction were obtained by ultracentrifugation. Electrophoresis and immunoblotting were performed as described elsewhere. Briefly the proteins of the soluble cytosolic and the membrane fractions were separated by SDS-PAGE and incubated with anti-Hrs mouse monoclonal antibody (Alexis, Vinci-Biochem, Florence, Italy) or anti-EGFR rabbit polyclonal antibody (Cell Signaling Celbio, Milan Italy) or anti-tubulin mouse monoclonal antibody (SIGMA-Aldrich, Milan, Italy). Densitometric analysis was performed as before.

T1 sequence (O14964 whole entry): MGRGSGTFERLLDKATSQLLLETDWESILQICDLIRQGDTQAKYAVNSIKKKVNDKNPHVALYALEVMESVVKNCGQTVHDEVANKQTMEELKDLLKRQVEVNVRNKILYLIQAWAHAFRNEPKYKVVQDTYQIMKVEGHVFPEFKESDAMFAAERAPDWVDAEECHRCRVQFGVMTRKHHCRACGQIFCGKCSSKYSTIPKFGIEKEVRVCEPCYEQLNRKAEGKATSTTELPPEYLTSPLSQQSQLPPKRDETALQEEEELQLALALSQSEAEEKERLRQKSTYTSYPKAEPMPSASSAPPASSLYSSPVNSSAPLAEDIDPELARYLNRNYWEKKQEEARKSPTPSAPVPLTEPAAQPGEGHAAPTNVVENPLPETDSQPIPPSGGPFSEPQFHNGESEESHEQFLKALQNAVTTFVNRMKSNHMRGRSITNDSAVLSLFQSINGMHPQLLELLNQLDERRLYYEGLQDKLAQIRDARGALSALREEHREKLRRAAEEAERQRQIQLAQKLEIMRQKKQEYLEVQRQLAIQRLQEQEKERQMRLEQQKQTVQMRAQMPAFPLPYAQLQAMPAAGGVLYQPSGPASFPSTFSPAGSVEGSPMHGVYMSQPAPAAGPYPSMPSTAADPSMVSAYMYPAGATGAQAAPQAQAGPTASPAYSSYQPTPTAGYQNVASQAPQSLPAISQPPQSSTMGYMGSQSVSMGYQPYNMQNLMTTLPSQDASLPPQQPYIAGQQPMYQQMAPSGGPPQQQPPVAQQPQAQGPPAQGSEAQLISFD

“EGF: growth factor used at 100 nanograms/ml as positive control”: the “BrdU incorporation (BrdU incorporating cells as percent of total cells)” value with CaCo-2 cells (CaCo-2 cells not expressing Hrs, 24 h treatment (peptides 70 micrograms/ml, EGF 100 nanograms/ml)) is 68.99%±7; with CaCo-2 cells (Hrs-EGFP-transfected (Hrs-expressing) CaCo-2 cells, 24 h treatment) it was 66.25%±9.53%. Besides, the “Amount of Hrs in the membrane fraction” value in the test with Hrs (normalised to EGFR) was “did not affect Hrs concentration in either compartment”. The “Amount of Hrs in the cytosolic fraction” value in the test with Hrs (normalised to tubulin) is “did not affect Hrs concentration in either compartment”.

For the origin of these results see PMC2923621, “Gliadin Peptide P31-43 Localises to Endocytic Vesicles and Interferes with Their Maturation” (PLoS ONE, 2010).
